According to patent publication US11053219B2, “Substituted pyridines as TYK2 inhibitors” (FronThera U.S. Pharmaceuticals LLC, priority 2018, dated 2021):

Assays:
[1] = target: TYK2 (JH2 domain) (Homo sapiens (Human), UniProt P29597); experiment: TYK2 JH2 domain binding assay (DiscoverX KINOMEscan); details: 11-point 3-fold dilution, duplicate
[2] = target: JAK1 (JH2 domain) (Homo sapiens (Human), UniProt P23458); experiment: JAK1 JH2 domain binding assay (KINOMEscan); details: KINOMEscan; read-out: JAK1 (JH2 domain) binding Kd
[3] = target: JAK2 (JH1 domain) (Homo sapiens (Human), UniProt O60674); experiment: JAK2 JH1 domain binding assay (KINOMEscan)
[4] = tested on: INFα induced pSTAT5 in human PBMC; experiment: INFα induced pSTAT5 in human PBMC; assay type: cell-based; details: human PBMC, INFα 5000 units/ml; read-out: p-STAT5 IC50
[5] = tested on: IL12-induced p-STAT4 in human PBMC; experiment: IL-12 induced pSTAT4 in human PBMC; assay type: cell-based; details: human PBMC, IL-12 10 ng/ml; read-out: p-STAT4 IC50
[6] = tested on: INFα induced pSTAT3 in human PBMC; experiment: INFα induced pSTAT3 in human PBMC; assay type: cell-based; details: human PBMC, INFα 5000 units/ml; read-out: p-STAT3 IC50
Experimental: Fresh Human PBMCs were resuspended in RPMI 1640 medium with 10% FBS. Cells were seeded in a round bottom 96-well plate at the concentration of 200,000 cells/well. A 10-point dilution series of test compound (top dose 10 uM, 1:5 dilution) was added to the well using the liquid dispenser (Tecan D300e) and incubated for 1 hour at 37 C. Then human INFα recombinant protein (R&D Systems) was added to the well at the final concentration of 5000 units/ml and incubated for 15 minutes at 37 C. Cell lysates were prepared and analyzed by Phospho STAT3 (Tyr705) cellular kit (Cisbio) or Phospho STAT5 (Tyr693) Kit (Meso Scale Discovery) following manufacturer's protocol.
For calculation of the inhibition rate, the relative pSTAT signal of each well=pSTAT signal of each well−the average pSTAT signal of baseline. The inhibition %=(the average pSTAT signal of INFα treatment wells−the relative of pSTAT signal in each compound containing well)/the average pSTAT signal of INFα treatment wells*100%
The curve was plotted as the inhibition % (y-axis) vs. compounds concentration (x-axis) and was fitted with log(inhibitor) vs. normalized response—Variable slope by GraphPad Prism7.0.

TYK2 (JH2 domain), sequence (P29597 589-875): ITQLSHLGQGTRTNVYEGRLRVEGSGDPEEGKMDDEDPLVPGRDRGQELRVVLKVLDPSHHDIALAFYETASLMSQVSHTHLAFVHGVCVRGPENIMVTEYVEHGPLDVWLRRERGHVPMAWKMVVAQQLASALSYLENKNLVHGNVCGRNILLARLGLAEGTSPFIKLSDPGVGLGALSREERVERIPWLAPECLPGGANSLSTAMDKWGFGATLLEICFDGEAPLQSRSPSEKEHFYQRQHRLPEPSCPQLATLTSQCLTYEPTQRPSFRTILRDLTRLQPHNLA
JAK2 (JH1 domain), sequence (O60674 849-1124): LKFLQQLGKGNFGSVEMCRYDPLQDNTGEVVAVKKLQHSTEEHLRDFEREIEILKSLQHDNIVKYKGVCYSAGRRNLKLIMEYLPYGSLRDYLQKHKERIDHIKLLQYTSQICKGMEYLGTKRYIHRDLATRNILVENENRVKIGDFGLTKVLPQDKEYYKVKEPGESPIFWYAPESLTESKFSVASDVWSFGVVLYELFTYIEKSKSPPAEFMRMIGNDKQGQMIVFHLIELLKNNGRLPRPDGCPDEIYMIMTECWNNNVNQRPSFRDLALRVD
JAK1 (JH2 domain), sequence (P23458 583-855): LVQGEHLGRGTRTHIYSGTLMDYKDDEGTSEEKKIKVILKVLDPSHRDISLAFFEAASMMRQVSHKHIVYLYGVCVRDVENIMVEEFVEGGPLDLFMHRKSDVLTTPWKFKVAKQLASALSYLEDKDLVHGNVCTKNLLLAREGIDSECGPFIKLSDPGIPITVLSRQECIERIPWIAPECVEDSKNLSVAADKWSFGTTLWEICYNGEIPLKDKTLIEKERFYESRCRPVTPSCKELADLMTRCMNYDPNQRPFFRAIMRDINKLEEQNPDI

Row | Kd [1] [nM] | SMILES | Kd [2] [nM] | Kd [3] [nM] | IC50 [4] [nM] | IC50 [5] [nM] | IC50 [6] [nM]
1 | ≤ 1 | [2H]C([2H])([2H])NC(=O)c1nnc(N2CCN(C3COC3)C2=O)cc1Nc1cccc(-c2ncn(C)n2)c1OC [Example 79] | – | – | – | 100 to 1000 | 100 to 1000
2 | ≤ 1 | [2H]C([2H])([2H])NC(=O)c1nnc(N2CCN(C3CCOC3)C2=O)cc1Nc1cccc(-c2ncn(C)n2)c1OC (stereo not shown) [Example 80] | – | – | – | < 100 | < 100

The remaining lines, values behind:

Row | SMILES | Kd [1] [nM] | Kd [2] [nM] | Kd [3] [nM] | IC50 [4] [nM] | IC50 [5] [nM] | IC50 [6] [nM]
3 | [2H]C([2H])([2H])NC(=O)c1nnc(NC(=O)N2CC(C)(C)C2)cc1Nc1cccc(-c2ncn(C)n2)c1OC [Example 38] | ≤ 1 | < 100 | 1000 to 10000 | < 100 | – | –
4 | [2H]C([2H])([2H])NC(=O)c1nnc(N2CCN(C(C)C3CC3)C2=O)cc1Nc1cccc(-c2ncn(C)n2)c1OC (stereo not shown) [Example 82] | ≤ 1 | – | – | – | < 100 | < 100
5 | [2H]C([2H])([2H])NC(=O)c1nnc(N2CCN(C(C)C#C)C2=O)cc1Nc1cccc(-c2ncn(C)n2)c1OC (stereo not shown) [Example 84] | ≤ 1 | – | – | – | < 100 | < 100
6 | [2H]C([2H])([2H])NC(=O)c1nnc(N2CCN(C3CCOCC3)C2=O)cc1Nc1cccc(-c2ncn(C)n2)c1OC [Example 86] | ≤ 1 | – | – | – | < 100 | 100 to 1000
7 | [2H]C([2H])([2H])NC(=O)c1nnc(N2CCN(C(C3CC3)C(F)(F)F)C2=O)cc1Nc1cccc(-c2ncn(C)n2)c1OC (stereo not shown) [Example 87] | ≤ 1 | – | – | – | < 100 | 100 to 1000
